Data from paper PMC10607100, “Anticancer and Antiphytopathogenic Activity of Fluorinated Isatins and Their Water-Soluble Hydrazone Derivatives” (International Journal of Molecular Sciences, 2023).

What was measured:
[1] = system: WI38; experiment: MTT cell viability test, WI38; type: cell-based, human; conditions: for IC50: Homo sapiens, WI-38, incubation time 24 h
Method: (§1) Human cell cultures of tumor origin—HeLa (cervical tumor), HuTu 80 (human duodenal adenocarcinoma), ChangLiver (human liver HeLa-like line), and normal cell line WI38, VA 13 subline 2RA is a diploid human cell strain composed of fibroblasts derived from healthy lung tissue provided by The Gamaleya National Center for Epidemiology and Microbiology, as well as the Institute of Cytology of the Russian Academy of Sciences. They were grown in a nutrient medium DMEM (PanEco, Moscow, Russia) and MEM (PanEco, Moscow, Russia), containing fetal bovine serum (10% by volume) (ThermoFisher Scientific, Paisley, UK), Glutamax (2 mM) (Gibco, Scotland, UK), and penicillin-streptomycin (1% by volume) (PanEco, Moscow, Russia). The cultivation was carried out at 37 °C in a humidified CO2 atmosphere (5%).
(§2) Cell viability was determined by the MTT test. Cells were seeded in a 96-well plate in the amount of 1 × 10^4 cells/200 µL of complete nutrient medium and cultured at 37 °C in CO2 (5%). After 24 h of incubation, various concentrations of test compounds in the range of 0.1 to 100 μM were added to the cell cultures, and then the cells were cultured under the same conditions for 24 and 72 h. For each concentration, the experiment was carried out in triplicate.
(§3) All compounds were dissolved in DMSO and then diluted with the medium to the required concentration. […] The DMSO was also added to the control wells in a volume of 1%. After the incubation time, MTT (3-(4,5-dimethylthiazol-2-yl)-2,5-diphenyltetrazolium bromide, 5 mg/mL) was added to each well, and plates were additionally incubated for 2 h (until the characteristic color appeared).
(§4) Using a plate analyzer (Cytation3, BioTech Instruments Inc., Winooski, VT, USA), the optical density was determined at 530 nm.
(§5) The IC50 parameter was calculated using the AAT Bioquest program.

[2] = system: platelet aggregation; experiment: Platelet aggregation, Born method; type: cell-based, human; conditions: for reduction of the maximum platelet aggregation, on average: text summary for 3a and 3b
Method: The in vitro experiments were performed using the blood of healthy male donors aged 18-24 years (a total of 54 donors). This study was approved by the Ethics Committee of the Federal State Budgetary Educational Institution of Higher Education at the Bashkir State Medical University of the Ministry of Health of the Russian Federation (No. 2, dated 17 October 2012). Informed consent was obtained from all participants before blood sampling. The blood was collected from the cubital vein using the vacuum blood collection system BD Vacutainer® (Becton, Dickinson, and Company, Franklin Lakes, NJ, USA). […] The study of the effect on platelet aggregation was performed using the Born method using the aggregometer «[…], Moscow, Russia). The assessment of the antiplatelet activity of the studied compounds and reference preparations was started with a final concentration of 2 × 10^-3 mol/L. Adenosine diphosphate (ADP; 20 μg/mL) and collagen (5 mg/mL) manufactured by […] Company, Barnaul, Russia, were used as inducers of aggregation. The study on the anticoagulant activity was performed by standard recognized clotting tests using the optical two-channel automatic analyzer of blood coagulation, Solar […] SOLAR, Minsk, Belarus). The following parameters were studied: activated partial thromboplastin time (APTT), prothrombin time (PT), and fibrinogen concentrations according to the Clauss method. The determination of the anticoagulant activity of the studied compounds and reference preparation was performed at a concentration of 5 × 10^-4 g/mL using the reagents manufactured by […] Company (Barnaul, Russia). The results of the study were processed using the statistical package Statistica 10.0 (StatSoft Inc., Tulsa, OK, USA). The Shapiro-Wilk's test was used to check the normality of the [NT] distribution. The form of distribution of the data obtained differed from the normal one; therefore, non-parametric methods were used for further analysis. The data were presented as medians and 25 and 75 percentiles. An analysis of variance was conducted using the Kruskal-Wallis test.

[3] = system: Chang Liver; experiment: MTT cell viability test, Chang liver; type: cell-based; conditions: Homo sapiens, incubation time 24 h
Method: as §1, §2, §3, §4, §5

[4] = system: HuTu 80; experiment: MTT cell viability test, HuTu 80; type: cell-based, human; conditions: for IC50: Homo sapiens, HuTu80, incubation time 24 h; for selectivity (SI) for HuTu 80: IC50 normal cells (WI38) / IC50 HuTu 80
Method: as §1, §2, §3, §4, §5
(§6) The selectivity index (SI) is calculated as the ratio between the IC50 for normal cells and the IC50 for cancer cells.

[5] = system: HuTu 80 cells; experiment: Mitochondrial membrane potential, JC-10 flow cytometry; type: cell-based, human; conditions: 24 h; concentrations corresponding to IC50
Method: To analyze the effect of compounds on changes in the mitochondrial membrane potential, we performed flow cytometry using JC-10 fluorescent dye (in the Mitochondria Membrane Potential Kit). In normal cells (with high membrane potential), JC-10 accumulates in the mitochondrial matrix, where it forms aggregates with red fluorescence. However, in apoptotic cells, JC-10 diffuses out of mitochondria, converts to its monomeric form, and emits green fluorescence, which is recorded by a flow cytometer. Cells were harvested at 2757 g for 5 min and then washed twice with ice-cold PBS, followed by resuspension in JC-10 (10 µg/mL) and incubation at 37 °C for 10 min. Then, the cells were rinsed three times and suspended in PBS, and the JC-10 fluorescence was observed by flow cytometry (Guava easyCyte, Merck, Rahway, NJ, USA).

[6] = system: HuTu 80 cells; experiment: ROS production, CellROX Deep Red flow cytometry; type: cell-based, human
Method: ROS generation was investigated using a flow cytometry assay and the CellROX® Deep Red flow cytometry kit. For this, HuTu 80 cells were harvested at 2000 rpm for 5 min and then washed twice with ice-cold PBS, followed by resuspension in 0.1 mL of medium without FBS, to which was added 0.2 μL of CellROX® Deep Red and incubated at 37 °C for 30 min. After three times washing the cells and suspending them in PBS, the production of ROS in the cells was immediately monitored using a flow cytometer (Guava easyCyte, Merck, Rahway, NJ, USA).

[7] = system: M-HeLa; experiment: MTT cell viability test, M-HeLa; type: cell-based, human; conditions: for IC50: Homo sapiens, M-HeLa, incubation time 24 h; for selectivity (SI) for M-HeLa: IC50 normal cells (WI38) / IC50 M-HeLa
Method: as §1, §2, §3, §4, §5, §6

[8] = system: HuTu 80 cells; experiment: Apoptosis induction, annexin V/propidium iodide flow cytometry; type: cell-based, human; conditions: 24 h; IC50 concentration of 40 μM
Method: HuTu 80 cells at 1 × 10^6 cells/well in a final volume of 2 mL were seeded into six-well plates. After 24 h of incubation, various concentrations of tested compounds were added to the wells. The cells were harvested at 2757 g for 5 min and then washed twice with ice-cold PBS, followed by resuspension in binding buffer. Next, the samples were incubated with 5 μL of annexin V-Alexa Fluor 647 (Sigma-Aldrich, Burlington, MA, USA) and 5 μL of propidium iodide for 15 min at room temperature in the dark. Finally, the cells were analyzed by flow cytometry (Guava easyCyte, Merck, Rahway, NJ, USA) within 1 h. The experiments were repeated three times.

IC50 [7] [µM]	Compound	cytotoxicity against the healthy cell line WI38 [1]	IC50 [1] [µM]	lengthening of the lag-period relative to the control [2]	reduction of the maximum platelet aggregation, on average [2] [%]	IC50 [3] [µM]	IC50 [4] [µM]	selectivity (SI) for HuTu 80 [4]	green fluorescence increased relative to the control [5]	ROS production relative to the control [6]	selectivity (SI) for M-HeLa [7]	cytotoxicity, times higher than the reference drug 5-FU ([7]; cell line not given) [times]	apoptosis-inducing activity [8]	increase in ROS production relative to the control ([6]; 12.5 µM) [fold]	increase in ROS production relative to the control ([6]; 25 µM) [times]
32.1 ± 2.5	O=C1C(=O)N(Cc2ccccc2Cl)c2ccc(F)cc21 [Compound 3b, 1-(2-Chlorobenzyl)-5-fluoroindoline-2,3-dione]	low cytotoxicity	58.1 ± 6.6	more than 10%	~12	71.5 ± 5.6	38.3 ± 3	1.5	up to 55%	increased ROS production	1.8	2.0	highest apoptosis-inducing activity	–	–
53.8 ± 4.3	O=C1C(=O)N(Cc2c(F)cccc2Cl)c2ccc(F)cc21 [Compound 3d, 1-(2-Chloro-6-fluorobenzyl)-5-fluoroindoline-2,3-dione]	low cytotoxicity	78.3 ± 8	–	–	> 100	31 ± 2.4	2.5	up to 55%	increased ROS production	1.5	–	–	–	–
62 ± 4.9	O=c1[nH]cc(F)c(=O)[nH]1 [Compound 5-FU, 5-fluorouracil, reference compound]	–	62 ± 4.2	–	–	19 ± 1.7	–	≤ 1	–	–	≤ 1	–	–	–	–
74.6 ± 5.9	O=C1C(=O)N(Cc2ccccc2F)c2ccc(F)cc21 [Compound 3a, 5-Fluoro-1-(2-fluorobenzyl)indoline-2,3-dione]	low cytotoxicity	62 ± 2	more than 10%	~12	53 ± 4.2	25.2 ± 1.9	2.5	–	–	–	–	–	1.1	7.1
